Active and inactive are the calls of the source. The rule behind the calls is not given here.
Key:
[1] = target: Metabotropic glutamate receptor 1 (Rattus norvegicus) (UniProt P23385); assay: Binding affinity to mGlu1 receptor in rat brain pons at 7.4 MBq after 60 mins by autoradiography; format: tissue-based; conditions: 7.4 M, tested as the 14C-labelled form
[2] = target: Metabotropic glutamate receptor 1 (Rattus norvegicus) (UniProt P23385); assay: Binding affinity to mGlu1 receptor in rat striatum at 7.4 MBq after 60 mins by autoradiography; format: tissue-based; conditions: 7.4 M, tested as the 14C-labelled form
[3] = target: Metabotropic glutamate receptor 1 (Rattus norvegicus, UniProt P23385); assay: Displacement of [18F]FITM from mGlu1 receptor in rat brain homogenates after 1 hr by gamma counting; format: tissue-based
[4] = target: Metabotropic glutamate receptor 1 (Rattus norvegicus) (UniProt P23385); assay: Binding affinity to mGlu1 receptor in rat brain homogenates at 7.4 MBq after 60 mins by autoradiography in presence of unlabeled N-[4-[6-(Isopropylamino)pyrimidin-4-yl]-1,3-thiazol-2-yl]- N,4-dimethylbenzamide; format: tissue-based; conditions: 7.4 M, tested as the 14C-labelled form
[5] = target: Metabotropic glutamate receptor 1 (Rattus norvegicus) (UniProt P23385); assay: Binding affinity to mGlu1 receptor in rat thalamus; format: tissue-based
[6] = target: Metabotropic glutamate receptor 1 (Rattus norvegicus) (UniProt P23385); assay: Binding affinity to mGlu1 receptor in rat thalamus at 7.4 MBq after 60 mins by autoradiography; format: tissue-based; conditions: 7.4 M, tested as the 14C-labelled form
[7] = target: Metabotropic glutamate receptor 1 (Rattus norvegicus) (UniProt P23385); assay: Binding affinity to mGlu1 receptor in rat brain cerebral cortex at 7.4 MBq after 60 mins by autoradiography; format: tissue-based; conditions: 7.4 M, tested as the 14C-labelled form
[8] = target: Metabotropic glutamate receptor 1 (Rattus norvegicus) (UniProt P23385); assay: Binding affinity to mGlu1 receptor in rat hippocampus; format: tissue-based
[9] = target: Metabotropic glutamate receptor 1 (Rattus norvegicus) (UniProt P23385); assay: Binding affinity to mGlu1 receptor in rat striatum; format: tissue-based
[10] = target: Metabotropic glutamate receptor 1 (Rattus norvegicus) (UniProt P23385); assay: Binding affinity to mGlu1 receptor in rat cerebellum at 7.4 MBq after 60 mins by autoradiography; format: tissue-based; conditions: 7.4 M, tested as the 14C-labelled form
[11] = target: Metabotropic glutamate receptor 1 (Rattus norvegicus) (UniProt P23385); assay: Binding affinity to mGlu1 receptor in rat hippocampus at 7.4 MBq after 60 mins by autoradiography; format: tissue-based; conditions: 7.4 M, tested as the 14C-labelled form
[12] = target: Metabotropic glutamate receptor 5 (Rattus norvegicus, UniProt P31424); assay: Displacement of [11C]-ABP688 from mGlu5 receptor in rat brain homogenates after 1 hr by gamma counting; format: tissue-based
[13] = target: Metabotropic glutamate receptor 1 (Rattus norvegicus) (UniProt P23385); assay: Binding affinity to mGlu1 receptor in rat brain substantia nigra pars reticulate at 7.4 MBq after 60 mins by autoradiography; format: tissue-based; conditions: 7.4 M, tested as the 14C-labelled form
[14] = target: Metabotropic glutamate receptor 1 (Rattus norvegicus) (UniProt P23385); assay: Binding affinity to mGlu1 receptor in rat brain homogenates at 7.4 MBq after 60 mins by autoradiography in presence of unlabeled 4-(6-chloropyrimidin-4-yl)-N-methylthiazol-2-amine; format: tissue-based; conditions: 7.4 M, tested as the 14C-labelled form
[15] = Lipophilicity, log D of the compound by shake flask method; format: physicochemical; conditions: octanol/water

Sequence of Metabotropic glutamate receptor 1 (Rattus norvegicus) (P23385 19-1199 limits assumed): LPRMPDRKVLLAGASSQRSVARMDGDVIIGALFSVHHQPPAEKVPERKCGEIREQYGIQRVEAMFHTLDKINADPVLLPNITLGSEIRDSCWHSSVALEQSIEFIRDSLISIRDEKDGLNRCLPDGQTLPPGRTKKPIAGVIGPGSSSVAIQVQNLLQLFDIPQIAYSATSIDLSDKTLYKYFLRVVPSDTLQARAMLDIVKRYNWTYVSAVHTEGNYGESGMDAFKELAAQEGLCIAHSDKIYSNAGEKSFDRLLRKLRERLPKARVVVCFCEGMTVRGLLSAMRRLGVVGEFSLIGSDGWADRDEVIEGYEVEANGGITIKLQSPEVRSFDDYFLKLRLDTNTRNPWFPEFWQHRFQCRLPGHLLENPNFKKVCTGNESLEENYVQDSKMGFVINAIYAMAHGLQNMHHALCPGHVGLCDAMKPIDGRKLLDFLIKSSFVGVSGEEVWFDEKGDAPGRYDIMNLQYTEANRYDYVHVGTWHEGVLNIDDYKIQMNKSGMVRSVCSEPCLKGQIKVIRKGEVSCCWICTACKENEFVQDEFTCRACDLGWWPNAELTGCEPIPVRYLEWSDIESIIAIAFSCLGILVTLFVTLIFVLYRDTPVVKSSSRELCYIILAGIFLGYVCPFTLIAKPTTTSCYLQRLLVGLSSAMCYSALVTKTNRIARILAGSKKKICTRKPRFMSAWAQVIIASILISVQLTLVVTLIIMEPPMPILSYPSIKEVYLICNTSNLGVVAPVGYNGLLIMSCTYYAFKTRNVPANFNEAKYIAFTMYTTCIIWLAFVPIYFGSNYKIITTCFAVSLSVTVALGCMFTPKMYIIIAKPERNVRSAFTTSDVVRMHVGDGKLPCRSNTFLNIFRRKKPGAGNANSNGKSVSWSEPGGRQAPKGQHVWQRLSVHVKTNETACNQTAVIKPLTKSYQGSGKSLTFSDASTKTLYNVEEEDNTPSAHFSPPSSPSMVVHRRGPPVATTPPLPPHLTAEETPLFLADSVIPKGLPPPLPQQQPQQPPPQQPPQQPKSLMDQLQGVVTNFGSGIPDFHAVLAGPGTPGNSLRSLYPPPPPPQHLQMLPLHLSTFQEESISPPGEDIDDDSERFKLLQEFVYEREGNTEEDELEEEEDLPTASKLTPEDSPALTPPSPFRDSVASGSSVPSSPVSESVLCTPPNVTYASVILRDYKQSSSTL
Sequence of Metabotropic glutamate receptor 1 (P23385 whole entry): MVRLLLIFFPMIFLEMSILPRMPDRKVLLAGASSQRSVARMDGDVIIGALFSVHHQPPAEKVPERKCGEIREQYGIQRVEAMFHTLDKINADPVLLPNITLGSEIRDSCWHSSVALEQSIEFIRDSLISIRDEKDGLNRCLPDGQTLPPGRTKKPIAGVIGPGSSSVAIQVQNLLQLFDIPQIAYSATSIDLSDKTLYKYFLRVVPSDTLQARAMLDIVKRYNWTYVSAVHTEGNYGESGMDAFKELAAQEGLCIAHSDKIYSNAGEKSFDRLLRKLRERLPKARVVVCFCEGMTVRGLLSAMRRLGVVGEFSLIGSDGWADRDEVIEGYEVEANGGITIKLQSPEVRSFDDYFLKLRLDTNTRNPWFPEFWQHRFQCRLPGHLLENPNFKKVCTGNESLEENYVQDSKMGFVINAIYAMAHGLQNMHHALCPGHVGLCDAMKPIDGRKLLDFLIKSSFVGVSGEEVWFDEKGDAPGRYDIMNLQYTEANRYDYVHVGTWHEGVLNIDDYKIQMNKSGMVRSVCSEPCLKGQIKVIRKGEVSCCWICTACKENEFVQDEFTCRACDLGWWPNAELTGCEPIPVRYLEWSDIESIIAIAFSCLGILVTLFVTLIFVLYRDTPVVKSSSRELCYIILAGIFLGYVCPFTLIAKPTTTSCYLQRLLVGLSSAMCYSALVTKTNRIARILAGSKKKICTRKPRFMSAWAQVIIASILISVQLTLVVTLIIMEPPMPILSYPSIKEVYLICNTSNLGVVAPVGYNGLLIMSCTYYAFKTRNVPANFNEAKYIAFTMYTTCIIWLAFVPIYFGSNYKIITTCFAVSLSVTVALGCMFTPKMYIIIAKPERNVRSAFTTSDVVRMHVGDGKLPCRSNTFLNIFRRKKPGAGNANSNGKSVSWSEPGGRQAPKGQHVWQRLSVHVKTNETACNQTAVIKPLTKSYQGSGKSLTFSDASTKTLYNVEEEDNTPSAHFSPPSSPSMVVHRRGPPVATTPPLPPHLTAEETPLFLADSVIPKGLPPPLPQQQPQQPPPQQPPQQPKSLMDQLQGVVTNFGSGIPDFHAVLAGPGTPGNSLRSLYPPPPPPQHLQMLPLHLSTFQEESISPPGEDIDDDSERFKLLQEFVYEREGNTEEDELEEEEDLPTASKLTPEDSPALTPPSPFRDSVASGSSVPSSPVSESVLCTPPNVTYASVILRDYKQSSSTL
Sequence of Metabotropic glutamate receptor 5 (P31424 whole entry): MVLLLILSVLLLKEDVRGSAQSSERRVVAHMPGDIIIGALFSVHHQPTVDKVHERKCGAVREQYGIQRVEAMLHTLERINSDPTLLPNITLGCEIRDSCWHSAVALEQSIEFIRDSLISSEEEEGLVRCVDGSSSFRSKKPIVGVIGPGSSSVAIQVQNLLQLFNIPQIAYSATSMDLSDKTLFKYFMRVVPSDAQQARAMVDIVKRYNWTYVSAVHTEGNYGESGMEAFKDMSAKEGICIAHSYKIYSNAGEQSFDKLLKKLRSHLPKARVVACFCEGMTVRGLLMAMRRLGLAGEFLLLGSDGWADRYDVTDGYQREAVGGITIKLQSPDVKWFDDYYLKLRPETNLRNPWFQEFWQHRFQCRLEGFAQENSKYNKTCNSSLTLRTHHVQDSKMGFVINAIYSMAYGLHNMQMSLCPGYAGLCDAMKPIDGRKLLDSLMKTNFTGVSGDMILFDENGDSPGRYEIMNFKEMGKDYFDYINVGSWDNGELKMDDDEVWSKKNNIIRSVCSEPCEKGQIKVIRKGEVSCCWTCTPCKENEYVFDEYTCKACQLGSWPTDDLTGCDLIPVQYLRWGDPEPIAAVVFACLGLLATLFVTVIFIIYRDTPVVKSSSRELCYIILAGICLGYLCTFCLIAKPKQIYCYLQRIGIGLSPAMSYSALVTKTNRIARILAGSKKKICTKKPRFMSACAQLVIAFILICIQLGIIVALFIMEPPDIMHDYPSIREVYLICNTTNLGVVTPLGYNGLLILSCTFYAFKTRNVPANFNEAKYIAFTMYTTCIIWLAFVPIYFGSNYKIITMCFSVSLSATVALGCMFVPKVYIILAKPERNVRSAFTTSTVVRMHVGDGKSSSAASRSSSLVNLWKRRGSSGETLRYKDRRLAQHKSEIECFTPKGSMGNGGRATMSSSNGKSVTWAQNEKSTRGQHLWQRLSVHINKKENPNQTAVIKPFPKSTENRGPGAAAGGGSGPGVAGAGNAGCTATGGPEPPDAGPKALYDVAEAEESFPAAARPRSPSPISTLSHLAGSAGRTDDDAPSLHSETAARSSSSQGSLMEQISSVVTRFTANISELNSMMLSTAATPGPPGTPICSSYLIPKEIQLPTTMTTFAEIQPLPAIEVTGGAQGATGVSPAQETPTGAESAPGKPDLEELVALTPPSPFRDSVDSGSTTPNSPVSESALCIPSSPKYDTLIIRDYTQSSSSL

SMILES	Activity [1]	Activity [2]	IC50 [3] [nM]	Ki [3] [nM]	Activity [4]	Activity [5] [nM]	Activity [6]	Activity [7]	Activity [8] [nM]	Activity [9] [nM]	Activity [10]	Activity [11]	IC50 [12] [nM]	Activity [13]	Activity [14]	logD [15]
Cc1ccc(C(=O)N(C)c2nc(-c3cc(NC(C)C)ncn3)cs2)cc1	Active	Active	26.5	13.6	inactive	36.3	Active	Active	27.5	22.2	Active	Active	> 10000	Active	inactive	1.74
CC(C)Nc1cc(-c2csc(N(C)C(=O)c3ccc(C#N)cc3)n2)ncn1	–	–	64.7	27.3	–	–	–	–	–	–	–	–	> 10000	–	–	–
CC(C)Nc1cc(-c2csc(N(C)C(=O)c3ccc(Cl)cc3)n2)ncn1	–	–	47	22.2	–	–	–	–	–	–	–	–	> 10000	–	–	–

From ChEMBL document CHEMBL2176881, “Development of N-[4-[6-(isopropylamino)pyrimidin-4-yl]-1,3-thiazol-2-yl]-N-methyl-4-[11C]methylbenzamide for positron emission tomography imaging of metabotropic glutamate 1 receptor in monkey brain” (J Med Chem, 2012)
